The record followed here is US7807828B2, “Olanzapine analogs and methods of use thereof” (Hypnion, Inc., priority 2005, dated 2010).

One assay has as its target H1 (rat) (Rattus norvegicus, UniProt P31390). Put plainly: H1 (rat) competitive binding assay. To be noted: Table 7A; Ki in nM. Here is the method: (§1) Binding assays were performed using various sleep-inducing agents and derivatives selected from those listed in Table 1 in competitive binding assays with known standards for the H1 histamine receptor, and the M1, M2, and M3 muscarinic receptors, alpha 1 and alpha 2 receptors, D1 and D2 receptors, 5HT2a, 5HT2b, 5HT2c, 5HT2c, and 5HT7 receptors.
(§2) The histamine H1 assays are described in Chang, et al., Heterogeneity of Histamine H1-Receptors: Species Variation in [^3H]Mepyramine Binding of Brain Membranes. Journal of Neurochemistry. 32: 1653-1663 (1979); Martinez-Mir, M. I., Pollard, H., Moreau, J., et al. Three Histamine Receptors (H1, H2, and H3) Visualized in the Brain of Human and Non-Human Primates. Brain Res. 526: 322-327 (1990); Haaksma, E. E. J., Leurs, R. and Timmerman, H. Histamine Receptors: Subclasses and Specific Ligands. Pharmac. Ther. 47: 73-104 (1990). The muscarinic assays are described in Buckley, N. J., Bonner, T. I., Buckley, C. M., and Brann, M. R. Antagonist Binding Properties of Five Cloned Muscarinic Receptors Expressed in CHO-K1 Cells. Mol. Pharmacol. 35: 469-476 (1989). The assays were performed according to the preceding articles, with the following modifications. Chemical reagents in the following were obtained from Sigma, St. Louis, Mo.

A further assay concerns the target T1, H1 (hr) (Homo sapiens, UniProt P35367).
T1 construct: Novascreen, MDS, Cerep (assay providers)
Put plainly: H1 (hr) Novascreen binding assay. The conditions noted are these: Table 7A; Ki in nM. As to the method:
as §1, §2

The target of assay [1] is T2, histamine H1 receptor (bovine) (Bos taurus, UniProt P30546).
T2 construct: the receptors were obtained from bovine cerebellar membrane tissue; from tissue; host or cells: bovine cerebellar membranes
Put plainly: Histamine H1 binding assay, bovine cerebellar membranes, [3H]pyrilamine. To be noted: for Ki: Table 7A, Ki in nM.

Assay [2] concerns the target T3, human recombinant M1 expressed in CHO cells (Homo sapiens, UniProt P11229).
T3 construct: purchased PerkinElmer, Inc., Wellesley, Mass; host or cells: CHO cells
T3 sequence (P11229 1-460): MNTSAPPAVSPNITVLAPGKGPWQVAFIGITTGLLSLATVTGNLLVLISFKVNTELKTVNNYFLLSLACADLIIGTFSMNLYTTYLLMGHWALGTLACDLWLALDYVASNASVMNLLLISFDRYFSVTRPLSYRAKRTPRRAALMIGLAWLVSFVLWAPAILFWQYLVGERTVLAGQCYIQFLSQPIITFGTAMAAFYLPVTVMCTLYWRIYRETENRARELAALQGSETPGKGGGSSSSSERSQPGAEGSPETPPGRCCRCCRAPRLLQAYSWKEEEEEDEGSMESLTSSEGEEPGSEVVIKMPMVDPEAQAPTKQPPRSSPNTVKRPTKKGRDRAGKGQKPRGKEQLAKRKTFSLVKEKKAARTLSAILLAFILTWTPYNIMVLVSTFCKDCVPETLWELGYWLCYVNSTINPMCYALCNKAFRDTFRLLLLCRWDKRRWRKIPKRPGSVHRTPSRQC
Put plainly: M1 muscarinic receptor binding assay. The conditions noted are these: Table 7A, first line of column M1 M2 M3.

The target of assay [3] is T4, human recombinant M2 expressed in CHO cells (Homo sapiens, UniProt P08172).
T4 construct: purchased PerkinElmer, Inc., Wellesley, Mass; host or cells: CHO cells
T4 sequence (P08172 1-466): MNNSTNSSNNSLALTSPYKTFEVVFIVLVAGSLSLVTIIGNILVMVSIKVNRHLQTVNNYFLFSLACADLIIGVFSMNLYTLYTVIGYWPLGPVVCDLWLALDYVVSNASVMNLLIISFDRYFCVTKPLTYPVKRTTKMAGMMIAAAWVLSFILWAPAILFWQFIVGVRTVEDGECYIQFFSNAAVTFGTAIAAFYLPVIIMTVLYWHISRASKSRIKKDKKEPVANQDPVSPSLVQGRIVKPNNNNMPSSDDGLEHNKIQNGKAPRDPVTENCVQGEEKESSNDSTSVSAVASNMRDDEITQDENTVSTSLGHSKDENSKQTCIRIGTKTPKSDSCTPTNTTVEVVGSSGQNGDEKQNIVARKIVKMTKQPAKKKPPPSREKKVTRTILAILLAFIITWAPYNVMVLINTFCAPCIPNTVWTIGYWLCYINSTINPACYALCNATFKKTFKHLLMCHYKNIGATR
Put plainly: M2 muscarinic receptor binding assay. The conditions noted are these: Table 7A, M1 M2 M3.

The target of assay [4] is T5, human recombinant M3 expressed in CHO cells (Homo sapiens, UniProt P20309).
T5 construct: purchased PerkinElmer, Inc., Wellesley, Mass; host or cells: CHO cells
Put plainly: M3 muscarinic receptor binding assay. The conditions noted are these: Table 7A, third line of column M1 M2 M3.

Another assay deals with D1 (h) (Homo sapiens, UniProt P21728). Put plainly: Dopamine D1 (human recombinant) binding assay. The conditions noted are these: Table 7A; unit inferred. Here is the method:
Dopamine, D1 (human recombinant) binding assay was performed according to published procedures. See, e.g., Jarvie, et al. J. Recept Res., 13(1-4): 573-90 (1993); and Billard, et al. Life Sciences, 35(18): 1885-93 (1984), with modifications

The target of a further assay is D2 (h) (Homo sapiens, UniProt P14416). Put plainly: Dopamine D2 binding assay. The conditions noted are these: Table 7A; unit inferred.
For another assay, the target named is 5HT2a (rat) (Rattus norvegicus, UniProt P14842). Put plainly: 5HT2a (rat) binding assay. To be noted: Table 7A; unit inferred.

“And” between values parts separate entries of the source, which are not always exact repeats. Identical values can stand only once.

Chain of D1 (h) (P21728 whole entry): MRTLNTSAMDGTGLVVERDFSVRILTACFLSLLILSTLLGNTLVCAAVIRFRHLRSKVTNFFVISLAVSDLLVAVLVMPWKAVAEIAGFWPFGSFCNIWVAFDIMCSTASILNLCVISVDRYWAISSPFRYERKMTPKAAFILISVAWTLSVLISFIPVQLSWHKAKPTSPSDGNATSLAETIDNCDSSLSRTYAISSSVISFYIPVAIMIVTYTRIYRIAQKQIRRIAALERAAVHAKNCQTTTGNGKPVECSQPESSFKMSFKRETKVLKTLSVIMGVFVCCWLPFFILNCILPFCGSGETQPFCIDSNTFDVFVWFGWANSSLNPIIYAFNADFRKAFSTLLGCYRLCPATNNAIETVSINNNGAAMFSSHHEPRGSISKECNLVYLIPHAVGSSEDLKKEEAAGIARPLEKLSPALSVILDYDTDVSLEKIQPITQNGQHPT
T1 sequence (P35367 whole entry): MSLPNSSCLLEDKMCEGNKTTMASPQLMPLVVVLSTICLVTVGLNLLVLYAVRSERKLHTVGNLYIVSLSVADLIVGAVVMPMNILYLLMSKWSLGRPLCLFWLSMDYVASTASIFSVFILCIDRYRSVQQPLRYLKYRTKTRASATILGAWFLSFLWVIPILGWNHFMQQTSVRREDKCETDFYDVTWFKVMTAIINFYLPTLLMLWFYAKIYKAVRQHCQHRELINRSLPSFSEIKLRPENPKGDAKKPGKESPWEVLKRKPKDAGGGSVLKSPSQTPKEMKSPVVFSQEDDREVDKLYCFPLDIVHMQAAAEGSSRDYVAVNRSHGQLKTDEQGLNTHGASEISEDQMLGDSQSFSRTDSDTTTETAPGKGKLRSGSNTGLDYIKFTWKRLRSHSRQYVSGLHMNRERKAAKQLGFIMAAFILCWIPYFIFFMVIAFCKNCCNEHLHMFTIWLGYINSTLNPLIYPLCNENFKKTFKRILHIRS
T5 sequence (P20309 whole entry): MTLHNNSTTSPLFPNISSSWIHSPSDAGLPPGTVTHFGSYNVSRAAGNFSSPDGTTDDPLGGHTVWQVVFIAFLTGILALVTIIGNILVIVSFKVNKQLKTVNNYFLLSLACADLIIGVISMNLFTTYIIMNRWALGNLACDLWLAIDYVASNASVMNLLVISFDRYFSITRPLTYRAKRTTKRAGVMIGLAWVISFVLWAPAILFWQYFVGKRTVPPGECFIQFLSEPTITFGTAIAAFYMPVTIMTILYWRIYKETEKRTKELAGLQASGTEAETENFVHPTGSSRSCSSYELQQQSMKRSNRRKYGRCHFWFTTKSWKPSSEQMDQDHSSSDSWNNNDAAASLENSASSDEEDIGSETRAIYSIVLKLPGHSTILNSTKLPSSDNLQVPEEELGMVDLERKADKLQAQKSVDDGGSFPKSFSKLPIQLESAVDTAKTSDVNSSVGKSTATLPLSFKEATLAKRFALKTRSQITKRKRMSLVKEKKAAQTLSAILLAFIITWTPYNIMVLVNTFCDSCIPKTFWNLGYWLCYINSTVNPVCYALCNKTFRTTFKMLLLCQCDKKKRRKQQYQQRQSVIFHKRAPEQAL
Chain of D2 (h) (P14416 whole entry): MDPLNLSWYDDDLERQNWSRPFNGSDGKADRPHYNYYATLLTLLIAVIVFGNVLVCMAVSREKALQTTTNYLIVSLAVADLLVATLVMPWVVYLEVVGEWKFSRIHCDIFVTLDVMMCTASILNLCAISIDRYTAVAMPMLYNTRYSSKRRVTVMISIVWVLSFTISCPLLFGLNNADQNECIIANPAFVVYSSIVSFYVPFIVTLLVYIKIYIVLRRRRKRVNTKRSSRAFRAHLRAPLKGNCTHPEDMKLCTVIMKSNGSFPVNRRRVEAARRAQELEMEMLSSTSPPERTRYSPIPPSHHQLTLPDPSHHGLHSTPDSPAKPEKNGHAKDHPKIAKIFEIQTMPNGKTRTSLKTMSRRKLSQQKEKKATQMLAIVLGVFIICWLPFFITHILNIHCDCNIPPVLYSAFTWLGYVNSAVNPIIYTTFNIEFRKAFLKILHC
T2 sequence (P30546 whole entry): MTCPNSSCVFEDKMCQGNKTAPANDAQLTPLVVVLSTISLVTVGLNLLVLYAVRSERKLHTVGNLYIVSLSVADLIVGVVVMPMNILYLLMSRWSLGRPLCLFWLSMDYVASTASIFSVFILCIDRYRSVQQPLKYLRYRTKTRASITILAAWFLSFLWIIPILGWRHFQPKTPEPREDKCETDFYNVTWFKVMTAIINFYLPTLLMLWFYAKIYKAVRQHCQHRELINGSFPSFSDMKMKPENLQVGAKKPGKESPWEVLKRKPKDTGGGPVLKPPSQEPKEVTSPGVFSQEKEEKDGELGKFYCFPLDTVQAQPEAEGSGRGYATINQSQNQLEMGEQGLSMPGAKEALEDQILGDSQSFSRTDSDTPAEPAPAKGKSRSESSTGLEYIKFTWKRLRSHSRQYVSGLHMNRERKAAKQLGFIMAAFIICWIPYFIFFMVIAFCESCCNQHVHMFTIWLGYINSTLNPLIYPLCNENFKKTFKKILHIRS
Chain of 5HT2a (rat) (P14842 whole entry): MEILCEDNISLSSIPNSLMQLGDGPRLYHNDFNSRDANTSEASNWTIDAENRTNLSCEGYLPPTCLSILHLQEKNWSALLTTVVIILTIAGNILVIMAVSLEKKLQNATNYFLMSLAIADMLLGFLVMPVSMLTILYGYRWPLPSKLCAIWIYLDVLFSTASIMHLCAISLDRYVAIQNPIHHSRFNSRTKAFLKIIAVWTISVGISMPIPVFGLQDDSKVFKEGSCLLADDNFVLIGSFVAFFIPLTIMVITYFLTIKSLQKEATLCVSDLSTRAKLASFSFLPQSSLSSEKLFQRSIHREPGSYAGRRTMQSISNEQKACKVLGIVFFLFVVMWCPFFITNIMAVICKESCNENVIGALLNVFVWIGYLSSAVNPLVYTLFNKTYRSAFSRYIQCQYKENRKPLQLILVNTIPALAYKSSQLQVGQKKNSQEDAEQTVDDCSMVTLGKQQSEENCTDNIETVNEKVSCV
Chain of H1 (rat) (P31390 whole entry): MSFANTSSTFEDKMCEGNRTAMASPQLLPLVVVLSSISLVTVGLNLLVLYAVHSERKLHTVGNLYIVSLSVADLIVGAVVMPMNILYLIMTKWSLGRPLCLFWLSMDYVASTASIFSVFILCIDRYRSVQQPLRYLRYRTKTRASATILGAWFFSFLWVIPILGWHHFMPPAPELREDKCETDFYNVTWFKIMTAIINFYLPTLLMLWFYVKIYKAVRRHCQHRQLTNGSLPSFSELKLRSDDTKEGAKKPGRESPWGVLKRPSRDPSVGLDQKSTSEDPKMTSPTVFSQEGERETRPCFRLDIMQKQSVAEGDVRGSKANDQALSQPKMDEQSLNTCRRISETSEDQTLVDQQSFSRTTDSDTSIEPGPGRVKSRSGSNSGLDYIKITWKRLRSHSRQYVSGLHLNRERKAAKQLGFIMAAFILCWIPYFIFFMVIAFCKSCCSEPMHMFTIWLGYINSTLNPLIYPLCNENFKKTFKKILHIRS

One may read the Ki as the equilibrium dissociation constant of an inhibitor or competing ligand from its target. Regarding `CC(C)c1cc2c(s1)Nc1ccccc1N=C2N1CCN(CC(C)(C)C(=O)O)CC1` [Compound 94], the Ki at H1 (rat) is 110 nM; at H1 (hr) it was 62 nM; in [1] it was 45.2 nM; in [2], > 10000 nM; in assay [3], > 10000 nM; in assay [4] it was > 10000 nM. Also, the Ki on D1 (h) stood at 300 nM; at D2 (h), 107 nM; at 5HT2a (rat), 8.2 nM.

Take `Cc1cc2c(s1)Nc1ccccc1N=C2N1CCN(CC(C)(C)C(=O)O)CC1` [Compound 46]: the Ki on H1 (rat) is 34 nM; at H1 (hr) it was 30 nM and 44 nM; in assay [1], 56 nM; in assay [2] it was > 10000 nM; in assay [3], > 10000 nM; in assay [4] it was > 10000 nM. In addition, the Ki is 1550 nM at D1 (h); 1100 nM and 533 nM and 847 nM at D2 (h); 14.5 nM at 5HT2a (rat). In addition, the “specificity for H1 over the muscarinic receptors” value in assay [1] (from Ki for H1 and M1, M2, M3) is “highly specific for H1 over the muscarinic receptors”.

Turning to `CCc1cc2c(s1)Nc1ccccc1N=C2N1CCN(CC(C)(C)C(=O)O)CC1` [Compound 90], the inhibitory constant (Ki) at H1 (rat) is 55.5 nM; at H1 (hr) it was 70 nM; in assay [1], 30 nM; in assay [2], > 10000 nM; in [3] it was > 10000 nM; in assay [4], > 10000 nM. The Ki came out at 565 nM on D1 (h), 196 nM at D2 (h) and 10.4 nM at 5HT2a (rat).

With `Cc1cc2c(s1)Nc1ccccc1N=C2N1CCN(CC2(C(=O)O)CC2)CC1` [Compound 91], the Ki at H1 (rat) is 53 nM; at H1 (hr), 60.6 nM; in assay [1], 30.1 nM; in [2], > 10000 nM; in [3], > 10000 nM; in [4], > 10000 nM. Also, the Ki is 278 nM on D1 (h), 202 nM at D2 (h) and 13.3 nM on 5HT2a (rat).

Turning to `Cc1cc2c(s1)Nc1ccccc1N=C2N1CCN(CCC(=O)O)CC1` [Compound 92], the Ki on H1 (rat) is 95.6 nM; on H1 (hr), 119 nM; in assay [1], 53.5 nM; in assay [2], > 10000 nM; in assay [3], > 10000 nM; in assay [4], > 10000 nM. For the same compound, the Ki on D1 (h) worked out at 129 nM; on D2 (h), 2480 nM; at 5HT2a (rat), 60.7 nM.
